Test results reported in US8778985B2, “Inhibiting amyloid-beta peptide/rage interaction at the blood-brain barrier” (The University of Rochester, priority 2006, dated 2014).

How the values were obtained:
[1] = tested on: APPsw+/− mice; test: CBF response to brain activation (whisker stimulation), chronic FPS2 treatment of APPsw+/− mice; format: in vivo; conditions: 1 mg/kg per day i.p. for two months from 8 months of age
Experimental: (A) Percent increase in cerebral blood flow (CBF) in response to brain activation in mice treated with vehicle (open bar) or FPS2 (closed bar). (B-C) novel object location (B) and novel object recognition (C) expressed as percent exploratory preference in APPsw^+/− mice treated with vehicle (open bar) or FPS2 (closed bar). FPS2 (1 mg/kg per day) was intraperitoneally administered for two months beginning at the age of 8 months old mice. Values are means±s.e.m, n=5-6 per group.
(§1) APPsw^+/− mice were treated with FPS2 (1 mg/kg) or with vehicle daily by intraperitoneal injection for two months starting at 8 months old. At the end of the treatment period functional changes in cerebral blood flow (CBF) to brain activation, and memory tests were determined. Brain and plasma Aβ levels were also determined in FPS2 and vehicle treated mice. […]
(§2) Compounds were synthesized in parallel using semiautomated chemical reactions. […] Purity was assessed by reverse-phase gradient HPLC. […] After two months of treatment, (i) the cerebral blood flow response to brain activation (whisker stimulation) was measured and (ii) behavioral tests including operant learning, novel object location (NOL), and novel object recognition (NOR) were performed. After these functional tests, the mice were sacrificed and their brains analyzed for Aβ40, Aβ42, and amyloid levels. • CBF response to brain activation. […]

[2] = tested on: APPsw+/− mice; test: Resting CBF by laser-doppler flowmetry, acute FPS2 treatment of APPsw+/− mice; format: in vivo; conditions: 1 mg/kg intravenous bolus, 7-9 months old mice
Experimental: Cerebral blood flow changes expressed as a percentage of baseline recorded over a 90 min period in mice administered FPS2 (filled triangle) or vehicle (filled square). FPS2 (1 mg/kg) was administered intravenously (arrow) as a bolus in 7-9 months old mice. Values are means±s.e.m, n=3 per group.
as §1
as §2, with “activation. The CBF response to vibrissal stimulation in anesthetized APPsw^+/− mice was measured by using laser-doppler flowmetry (Transonic Systems, BLF 21 D).” for “activation.”

CC(CC(=O)NCCCN(C(=O)c1cc([N+](=O)[O-])cc([N+](=O)[O-])c1)c1ccccc1)CC(C)(C)C (stereo not drawn) [FPS2, 3,5-dinitro-N-phenyl-N-[3-[(3,5,5-trimethyl-1-oxohexyl)amino]propyl]-(9Cl)-benzamide]
increase of CBF during brain activation compared to vehicle [1]: about 50%
time of peak of resting CBF increase [2]: 25 to 30 min
transient increase of resting CBF [2]: about 35%
